Columns and labels:
[1] = test system: CHO cells; test: Migration of mCherry-tagged PH or C2 domain to the cell membrane, fluorescence microscopy; type: cell-based
Source text: First, the PH domain of Akt1 protein or the C2 domain of PKCβ protein was obtained by PCR using the primers consisting of the nucleotide sequences represented by […]. The obtained PCR product was cloned in pmCherry-C1 vector (Takara Clontech, Japan) by the conventional cloning method. CHO cells were transfected with the prepared vector by using lipofectamine according to the manufacturer's protocol. The transfected cells were selected by using blastidicin. Then, mCherry positive cells were confirmed by flow cytometry.
PMA at the concentration of 100 nM, ionomycin at the concentration of 10 μM or insulin at the concentration of 100 nM was added to the cells expressing the PH domain of Akt1 protein or the C2 domain of PKCβ protein and the location of the expressed protein was confirmed by fluorescence microscopy.

[2] = Protein-lipid binding assay (PIP-strips)
Description: (§1) Particularly, the analysis was performed by using membrane-immobilized lipid strips (PIP-strips, Echelon Biosciences Inc., USA). At this time, the membrane was loaded with LPA (lysophosphatidic acid), LPC (lysophosphatidylcholine), PI (phosphatidylinositol), PE (phosphatidylethanolamine), PC (phosphatidylcholine), S1P (sphingosine 1-phosphate), PA (phosphatidic acid) or PS (phosphatidylserine) at the concentration of 100 pmol, to which calcium was added at the concentration of 0, 0.05 or 0.1 mM. Each membrane was pre-treated with a blocking buffer [fatty acid free 3% BSA (bovine serum albumin), 0.1% (v/v) Tween 20 and TBS (Tris-buffered saline), pH 7.5] at room temperature for 30 minutes. The PH domain of Atk protein purified in Example <7-1> was suspended in a blocking buffer at the concentration of 3.5 mg/Ml. The suspended protein was reacted with the membrane-immobilized lipid strip at room temperature for 30 minutes. The protein bound with lipid was identified by using the PH domain antibody.
To investigate whether or not the binding of the PKCβ protein C2 domain purified in Example <8-1> to PI(4,5)P2 or PI(3,4,5)P3 was inhibited by calcium, protein-lipid binding assay and ITC were performed. First, protein-lipid binding assay was performed by the same manner under the same conditions as described in Example <7-2> except that the PKCβ protein C2 domain was used instead of the Akt protein PH domain. At this time, D187/193A and D246/248A mutant proteins of the C2 domain were used as the control group, and the results are shown in FIG. 8.

[3] = ITC of C2 domain with PI(3,4,5)P3 liposomes; type: binding
Description: (§2) Particularly, a protein solution was prepared by suspending a protein in 10 mM HEPES (pH 7.0). Phospholipid related ligand was titrated in the protein solution at 25° C. by using iTC200 micro calorimetry system (MicroCal Inc., USA), and the generated graph was corrected using Origin software (MicroCal Inc., USA). At this time, the phospholipid related ligand was prepared in the form of liposome by mixing POPC (1-palmitoyl-2-oleoyl-sn-glycero-3-phosphocholin) chloroform solution and POPS (1-palmitoyl-2-oleoyl-sn-glycero-3-phosphoserine), PI(3,4)P2 (1,2-dipalmotoyl-sn-glycero-3-phosphatidylinositol-3,4-[…]), PI(4,5)P2 (1,2-dipalmotoyl-sn-glycero-3-phosphatidylinositol-4,5-trisphosphate) or PI(3,4,5)P3 (1,2-dipalmotoyl-sn-glycero-3-phosphatidylinositol-3,4,5-trisphosphate) at the molar ratio of 80:20. The organic solvent was eliminated. The organic solvent was removed and a single layer lamellar was produced in HEPES (pH 7.0) using phospholipids.
In the meantime, in ITC, the phospholipid related ligand was prepared in the form of liposome by mixing POPC chloroform solution and PI(3,4,5)P3 at the molar ratio of 80:20. Then, ITC was performed by the same manner under the same conditions as described in Example <7-3> except that the PKCβ protein C2 domain or D187/193A, the C2 domain mutant, was used.

[4] = test system: Akt protein; test: Western blotting of Akt protein phosphorylation in insulin-treated HepG2 cells; type: cell-based, human
Description: First, male C57BL/6 mice at 8 weeks were divided into the fasted group wherein the mice were fasted for 16 hours and the refed group wherein the mice were fasted for 16 hours and then fed for 4 hours. Each group was sub-divided into the high fat diet group (HFD) and the normal diet group (chow). The liver cells were extracted from the raised mice by the same manner and under the same conditions as described in Example 1. The extracted liver cells were lysed in a lysis buffer containing phosphatase (Sigma-Aldrich, USA) and protease inhibitor (Sigma-Aldrich, USA). Proteins extracted from 2 to 3 mg of the liver tissue were homogenized by using a tissue homogenizer (TissuLyser, Qiagen, USA) for 1.5 minutes at a frequency of 1/30 sec. The homogenized lysate was centrifuged at 12,000 rpm for 15 minutes and the supernatant was obtained. The amount of the extracted protein was quantified by using a protein assay kit (Bio-Rad Laboratories, USA), and at this time BSA was used as a standard sample. 3 mg of the protein was mixed with 6× loading buffer, followed by electrophoresis using 10% SDS-PAGE gel. The electrophoresed protein was transferred onto a polyvinylidene fluoride (PVDF) membrane by using a transfer buffer at 4° C. with 120 V for 1.5 hours. The PVDF membrane on which the protein was transferred was pretreated with a blocking buffer prepared by mixing 5% skim milk with TBS buffer (TBS-T, pH 7.6) supplemented with Tween 20 for 30 minutes, and the membrane was washed with TBS-T. The washed membrane was added with the antibody against Akt (Cell Signaling Technology, USA), Akt(T308) (Cell Signaling Technology, USA), Akt(S473) (Cell Signaling Technology, USA), FOXO3A (Cell Signaling Technology, USA), FOXO3A(S253) (Cell Signaling Technology, USA), GSK-3β (Cell Signaling Technology, USA) or GSK-3β(S9) (Cell Signaling Technology, USA) protein as a primary antibody, followed by reaction at 4° C. for 12 hours. At this time, the antibody against actin (Santa Cruz Biotechnology, USA) protein was used for the control group. Upon completion of the reaction, the secondary antibody corresponding to the primary antibody was added thereto, followed by reaction at room temperature for 30 minutes. The PVDF membrane was washed with TBS-T buffer three times. The washed PVDF membrane was added with ECL solution (Thermo Scientific, USA), followed by image observation.
To investigate the changes in insulin sensitivity when insulin was added to the fatty liver cell model constructed in vitro, the phosphorylations of those proteins that were involved in insulin signaling mechanism were examined. PA was added to the human HepG2 cells prepared in Example 3, followed by reaction for 24 hours. […]

[5] = ITC of phospholipid liposomes with calcium; type: binding; conditions: liposome with POPC 80:20, 25° C.
Description: as §2

[6] = test system: Akt protein; test: Western blot of Akt activation in HepG2 cells co-transfected with PI3K under increased calcium; type: cell-based, human
[7] = Protein-lipid binding assay (PIP-strips); remark: listed apart in the source
Description: as §1

[8] = intracellular calcium concentration increased (PMA 100 nM, ionomycin 10 μM)
[9] = membrane-immobilized lipid strips
[10] = HepG2, PMA 0, 10, 50 or 100 nM or ionomycin 0, 1, 5, 10 or 20 μM, 100 nM insulin, dose-dependent

## C2 domain of PKCβ protein: purified C2 domain of PKCβ protein, SEQ. ID. NO: 14
[1]; insulin 100 nM added
  migration to the cell membrane: did not migrate to the cell membrane
[1]; [8]
  migration to the cell membrane: migrated as the intracellular calcium concentration was increased
[2]; calcium 0, 0.05 or 0.1 mM
  effect of calcium on binding to PI(3,4,5)P3: promoted
  effect of calcium on binding to PI(4,5)P2: promoted
[2]; [9]
  binding to PI(3,4,5)P3: strongly bound
  binding to PI(4,5)P2: strongly bound
[3]; absence of calcium
  binding to PI(3,4,5)P3 by ITC: not induced
[3]; increased calcium concentration, POPC:PI(3,4,5)P3 80:20 liposome
  binding to PI(3,4,5)P3 by ITC: strongly bound

## CCCCCCCCCCCCCC(=O)O[C@@H]1[C@@H](C)[C@@]2(O)[C@@H](C=C(CO)C[C@]3(O)C(=O)C(C)=C[C@@H]23)[C@@H]2C(C)(C)[C@]12OC(C)=O [PMA, phorbol myristate acetate]
[4]; [10]
  phosphorylation of Akt protein: significantly inhibited

## COc1ccc(CCN(C)CCCC(C#N)(c2ccc(OC)c(OC)c2)C(C)C)cc1OC (stereo not shown) [verapamil]
[4]; HepG2, verapamil 0, 5, 10 or 100 nM, effect of insulin addition
  phosphorylation of Akt protein: increased

## CCCCCCCCCCCCCCCC(=O)OCC(COP(=O)(O)OC1C(O)C(O)C(OP(=O)(O)O)C(OP(=O)(O)O)C1O)OC(=O)CCCCCCCCCCCCCCC (stereo not shown) [PI(3,4)P2, 1,2-dipalmotoyl-sn-glycero-3-phosphatidylinositol-3,4-triphosphate]
[5]
  binding to calcium: high affinity

## C[C@H](CCC(=O)O)C[C@H](C)C[C@H](C)C(=O)/C=C(\O)[C@H](C)C[C@H](C)C/C=C/[C@@H](C)[C@@H](O)[C@@H](C)[C@@H](O)C[C@@H]1CC[C@@](C)([C@H]2CC[C@@](C)([C@@H](C)O)O2)O1 [ionomycin]
[4]; [10]
  phosphorylation of Akt protein: significantly inhibited

## CCCCCCCCCCCCCCCC(=O)OCC(COP(=O)(O)OC1C(O)C(OP(=O)(O)O)C(OP(=O)(O)O)C(OP(=O)(O)O)C1O)OC(=O)CCCCCCCCCCCCCCC (stereo not shown) [PI(3,4,5)P3, 1,2-dipalmotoyl-sn-glycero-3-phosphatidylinositol-3,4,5-trisphosphate]
[5]
  binding to calcium: high affinity

## CCCCCCCCCCCCCCCC(=O)OCC(COP(=O)(O)OC1C(O)C(O)C(OP(=O)(O)O)C(OP(=O)(O)O)C1O)OC(=O)CCCCCCCCCCCCCCC (stereo not shown) [PI(4,5)P2, 1,2-dipalmotoyl-sn-glycero-3-phosphatidylinositol-4,5-trisphosphate]
[5]
  binding to calcium: high affinity

## wild type Akt protein: control: wild type Akt protein containing the PH domain, SEQ. ID. NO: 16
[6]
  Akt protein activation by PI3K: activated
[6]; PMA 0, 10, 50 or 100 nM, ionomycin 20 μM, 1 hour
  Akt protein activation as calcium concentration increases: inhibited

B1: PH domain of Akt protein: purified PH domain of Akt1 protein, SEQ. ID. NO: 13 (protein)
chain: MSDVAIVKEGWLHKRGEYIKTWRPRYFLLKNDGTFIGYKERPQDVDQREAPLNNFSVAQCQLMKTERPRPNTFIIRCLQWTTVIERTFHVETPEEREEWTTAIQTVADGLKKQEEEEMDFRSGSPSDNSGAEEMEVSLAKPKHR
modifications: artificial_PH domain of Akt protein
[1]; insulin 100 nM added
  migration to the cell membrane: migrated to the cell membrane
[1]; [8]
  migration to the cell membrane: not observed
[2]; calcium 0, 0.05 or 0.1 mM
  effect of calcium on binding to PI(3,4,5)P3: inhibited as calcium concentration was increased
[2]; [9]
  binding to PI(3,4,5)P3: bound
[7]; calcium 0, 0.05 or 0.1 mM
  effect of calcium on binding to PI(3,4)P2: inhibited as calcium concentration was increased
[7]; [9]
  binding to PI(3,4)P2: bound

Source: patent US20190153051A1, “FUSION PROTEIN OF C2 DOMAIN AND AKT KINASE DOMAIN FRAGMENT AND USE THEREOF” (Gachon University of Industry-Academic Cooperation …, priority 2017, published 2019)
